In patent US20030113322A1, “CDR-H1-derived peptide CB11, pharmaceutical compositions made therefrom and methods of treating disorders in mammals” (priority 2001, published 2003):
Positions of bridges follow the written chain, without caps; N, C: chain ends. Residues, ends and D or L forms follow the SMILES beside them. No end group written: not given here.

How the values were obtained:
[1] = tested on: pdb10F T cells stimulated by pep24-pulsed EBV-Lu antigen-presenting cells; assay: IL-2 secretion assay following antigen presentation; type: cell-based, murine; conditions: for inhibition of IL2 secretion: Example 2, Table 1 (table not given)
[2] = tested on: HeLa P4 indicator cells infected with HIV-1Lai; assay: HIV-1 promoter activation assay (LTR-driven β-galactosidase); type: cell-based
Method: HeLa P4 indicator cells (8×10^4 cells/ml) were cultured in medium supplemented or not with infectious HIV-1Lai in the presence or absence of antibodies for three days, harvested and lysed. β-galactosidase activity was then determined as previously described by measuring the absorbance at 410 nm.
HeLa P4 indicator cells (8×10^4 cells/ml) were cultured in medium supplemented or not with 1000 TCID50 of infectious HIV-1Lai in the presence or absence of peptides or mAb for 3 days, harvested and lysed. The β-galactosidase activities were then determined as previously described by measuring the absorbance at 410 nm.

[3] = type: in vitro ADME
Excerpt: A relatively high concentration of peptides is preferred to achieve efficient biological activity with regard to the efficient antibody dose. […] We believe that use of D-amino acids for peptide synthesis would improve their metabolic stability.

[4] = molecular target: T1, His6-sCD4 (Homo sapiens, UniProt P01730); assay: ELISA binding of His6-sCD4 to coated cyclic PDPs; conditions: 20 nM His6-sCD4, FIG. 8
T1 construct: codons 1 to 6, and the anti-sense primer SCD4RTB (5′-[…]), which contains the reverse complement of codons 367 to 372; made in house; host or cells: Spodoptera frugiperda Sf9 cells, baculovirus (p119L vector, P10 promoter)
Method: Three replicates corresponding to 10-fold serial dilutions of the nine cyclic PDPs (CB1-CB9) were coated overnight at 4° C. onto 96-well ELISA plates (Nunc. Paisley, UK) with an initial peptide concentration of 50 μM. Four washes in 160 mM PBS, pH 7.2, containing 0.1% Tween 20 (PBS-T) were performed before and after saturating the wells with 1% non-fat dry milk in PBT-T for 1 h at 37° C. Thereafter, 100 μl of 20 nM His6-sCD4 was added to each well. Following a 2 h incubation and four washes in PBS-T, bound His6-sCD4 was detected by addition of 100 μl of a 1:2000 solution of peroxidase-conjugated anti-His6 mAb (Sigma) and subsequent addition of peroxidase substrate. Absorbance was measured at 490 nm.

[5] = peptide diluted in 20% acetonitrile buffer

Row | Compound | inhibition of HIV-1Lai LTR-driven β-galactosidase expression [2, 5] | inhibition of IL2 secretion [1] | inhibition of HIV-1Lai LTR-driven β-galactosidase expression ([2]; Example 2, 3 days, FIG. 10A) | CD4 binding of coated cyclic peptide [4] | other results
1 | CC(C)C[C@@H]1NC(=O)[C@@H](NC(=O)[C@@H](N)CCCCN)CSSC[C@@H](C(=O)N[C@@H](CCCCN)C(N)=O)NC(=O)[C@H](CO)NC(=O)[C@H](CCC(N)=O)NC(=O)[C@H](CCCNC(=N)N)NC(=O)[C@H](C(C)C)NC(=O)[C@H](Cc2c[nH]c3ccccc23)NC(=O)[C@H](Cc2c[nH]cn2)NC(=O)[C@H](C(C)C)NC(=O)CNC(=O)[C@H](Cc2ccccc2)NC(=O)[C@H]([C@@H](C)O)NC(=O)[C@H]([C@@H](C)O)NC1=O [CB1] (H-KCLTTFGVHWVRQSCK-NH2; disulfide 2-15; N-terminus and C-terminus assumed) | no inhibition |  |  |  | concentration range with inhibitory activity of IL2 secretion ([1]; Example 2): 125 to 250 µM; inhibition of HIV-1Lai LTR-driven β-galactosidase expression ([2]; 50 μM peptide, 3 days, FIG. 10A): significant inhibition; IC50 ([2]; FIG. 10B, read-out: IC50 of inhibition of β-galactosidase activity): ~15 µM; decrease in binding of CD4 to peptide after pre-incubation [3]: 50%
2 | CC[C@H](C)[C@@H]1NC(=O)[C@@H](NC(=O)[C@@H](N)CCCCN)CSSC[C@@H](C(=O)N[C@@H](CCCCN)C(N)=O)NC(=O)[C@H](CCC(N)=O)NC(=O)[C@H](CCCCN)NC(=O)[C@H](CCC(N)=O)NC(=O)[C@H](CCC(N)=O)NC(=O)[C@H](Cc2ccc(O)cc2)NC(=O)[C@H](Cc2c[nH]c3ccccc23)NC(=O)[C@H](C)NC(=O)[C@H](CC(C)C)NC(=O)[C@H](Cc2ccc(O)cc2)NC(=O)[C@H](CO)NC(=O)[C@H](Cc2ccc(O)cc2)NC1=O [CB8] (H-KCIYSYLAWYQQKQCK-NH2; disulfide 2-15) | lack of activity | lack of activity |  |  | 
3 | FGDYYCLQYASS (not fully specified (N-terminus, C-terminus, bridges); also: cyclized (bridge not given here)) [Dig97c, unrelated peptide derived from the CDR-L3 region of the anti-digoxin 1C10 mAb, reference compound] |  |  | did not affect |  | 
4 | GSDQWNKMQYYP (not fully specified (N-terminus, C-terminus, bridges); also: cyclized (bridge not given here)) [ScCM9, scrambled form of PDP CM9, Lys-Cys added at both termini, reference compound] |  | no inhibition | did not affect | non-reactivity | 
5 | KEEICEVEDQTY (not fully specified (N-terminus, C-terminus, bridges); also: cyclized (bridge not given here)) [ScCDR3-like, scrambled form of the CD4-derived CDR3-like peptide] |  |  |  | non-reactivity | 
